Tests used:
[1] = target: T1, SeXPK (Synechococcus elongatus, UniProt Q31LF9); assay: cryo-EM structure; format: binding; conditions: 2 mM AMPPNP; allosteric site at dimer interface, two per dimer, no Mg2+ bound; TPP/Mg2+ present
T1 construct: gene Synpcc7942_2080; N-terminal 6His tag, pDC vector, E. coli; dodecamer of six dimers; purified with TPP/Mg2+
T1 sequence (Q31LF9 1-796): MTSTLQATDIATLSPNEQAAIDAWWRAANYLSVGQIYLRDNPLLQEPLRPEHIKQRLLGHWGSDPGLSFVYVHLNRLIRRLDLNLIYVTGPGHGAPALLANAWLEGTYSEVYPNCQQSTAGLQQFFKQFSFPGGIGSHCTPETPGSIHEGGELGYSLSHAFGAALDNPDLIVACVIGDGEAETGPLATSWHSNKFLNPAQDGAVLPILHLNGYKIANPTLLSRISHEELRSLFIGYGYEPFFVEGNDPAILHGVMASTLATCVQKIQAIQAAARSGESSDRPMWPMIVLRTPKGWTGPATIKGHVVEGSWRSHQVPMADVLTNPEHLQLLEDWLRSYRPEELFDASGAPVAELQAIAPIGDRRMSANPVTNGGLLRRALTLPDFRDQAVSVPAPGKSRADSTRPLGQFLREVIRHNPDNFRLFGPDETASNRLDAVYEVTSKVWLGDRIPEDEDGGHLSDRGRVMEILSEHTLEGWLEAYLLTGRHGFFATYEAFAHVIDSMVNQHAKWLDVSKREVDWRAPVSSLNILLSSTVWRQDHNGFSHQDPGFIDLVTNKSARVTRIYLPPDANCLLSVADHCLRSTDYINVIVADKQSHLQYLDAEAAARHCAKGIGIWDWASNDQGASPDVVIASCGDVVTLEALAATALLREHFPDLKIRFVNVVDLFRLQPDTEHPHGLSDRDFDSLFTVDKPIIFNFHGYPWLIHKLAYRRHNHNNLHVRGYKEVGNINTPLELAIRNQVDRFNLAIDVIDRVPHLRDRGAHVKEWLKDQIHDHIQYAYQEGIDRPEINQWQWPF

[2] = target: T1, SeXPK; assay: acetyl phosphate formation, hydroxamate colorimetric assay; format: biochemical; conditions: F6P varied, 30 mM phosphate, pH 6.4, 1 mM TPP, 1 mM MgCl2; allosteric
[3] = target: T2, Methylomonas sp. XPK (MeXPK) (Methylomonas sp. DH-1, UniProt A0A172UD65); assay: as above; format: biochemical; conditions: F6P varied, 30 mM phosphate, pH 6.4, 1 mM TPP, 1 mM MgCl2; allosteric
T2 construct: same plasmid as SeXPK (N-terminal 6His tag), expressed in E. coli and purified
T2 sequence (A0A172UD65 1-788): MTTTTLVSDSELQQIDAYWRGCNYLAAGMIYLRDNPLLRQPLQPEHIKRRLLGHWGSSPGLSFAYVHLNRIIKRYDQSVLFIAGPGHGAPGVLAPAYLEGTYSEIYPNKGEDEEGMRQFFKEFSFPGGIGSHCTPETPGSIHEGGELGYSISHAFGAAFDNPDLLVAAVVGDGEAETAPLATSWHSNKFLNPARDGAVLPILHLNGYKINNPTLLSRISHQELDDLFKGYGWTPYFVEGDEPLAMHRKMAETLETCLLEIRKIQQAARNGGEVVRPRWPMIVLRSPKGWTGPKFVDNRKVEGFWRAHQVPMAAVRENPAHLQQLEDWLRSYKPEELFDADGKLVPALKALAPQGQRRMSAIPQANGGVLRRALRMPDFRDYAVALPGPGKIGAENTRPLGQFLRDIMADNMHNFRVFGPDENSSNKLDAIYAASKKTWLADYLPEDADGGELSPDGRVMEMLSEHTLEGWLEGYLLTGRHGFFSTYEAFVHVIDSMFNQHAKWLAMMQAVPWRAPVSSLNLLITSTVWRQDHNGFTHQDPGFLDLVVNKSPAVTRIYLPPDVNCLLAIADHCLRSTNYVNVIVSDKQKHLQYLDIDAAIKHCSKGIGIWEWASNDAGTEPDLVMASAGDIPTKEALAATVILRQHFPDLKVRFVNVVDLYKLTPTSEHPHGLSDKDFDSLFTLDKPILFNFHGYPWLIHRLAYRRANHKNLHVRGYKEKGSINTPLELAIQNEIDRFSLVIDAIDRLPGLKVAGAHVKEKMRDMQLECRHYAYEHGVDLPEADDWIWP
Text: acetyl phosphate formation, hydroxamate colorimetric assay on Methylomonas sp.

[4] = target: T3, SeXPK (Synechococcus elongatus, UniProt Q31LF9, H706R); assay: as above; format: biochemical; conditions: 30 mM phosphate, pH 6.4, 1 mM TPP, 1 mM MgCl2; no ATP
T3 construct: gene Synpcc7942_2080; N-terminal 6His tag, pDC vector, E. coli; dodecamer of six dimers; purified with TPP/Mg2+
T3 sequence (Q31LF9 whole entry H706R): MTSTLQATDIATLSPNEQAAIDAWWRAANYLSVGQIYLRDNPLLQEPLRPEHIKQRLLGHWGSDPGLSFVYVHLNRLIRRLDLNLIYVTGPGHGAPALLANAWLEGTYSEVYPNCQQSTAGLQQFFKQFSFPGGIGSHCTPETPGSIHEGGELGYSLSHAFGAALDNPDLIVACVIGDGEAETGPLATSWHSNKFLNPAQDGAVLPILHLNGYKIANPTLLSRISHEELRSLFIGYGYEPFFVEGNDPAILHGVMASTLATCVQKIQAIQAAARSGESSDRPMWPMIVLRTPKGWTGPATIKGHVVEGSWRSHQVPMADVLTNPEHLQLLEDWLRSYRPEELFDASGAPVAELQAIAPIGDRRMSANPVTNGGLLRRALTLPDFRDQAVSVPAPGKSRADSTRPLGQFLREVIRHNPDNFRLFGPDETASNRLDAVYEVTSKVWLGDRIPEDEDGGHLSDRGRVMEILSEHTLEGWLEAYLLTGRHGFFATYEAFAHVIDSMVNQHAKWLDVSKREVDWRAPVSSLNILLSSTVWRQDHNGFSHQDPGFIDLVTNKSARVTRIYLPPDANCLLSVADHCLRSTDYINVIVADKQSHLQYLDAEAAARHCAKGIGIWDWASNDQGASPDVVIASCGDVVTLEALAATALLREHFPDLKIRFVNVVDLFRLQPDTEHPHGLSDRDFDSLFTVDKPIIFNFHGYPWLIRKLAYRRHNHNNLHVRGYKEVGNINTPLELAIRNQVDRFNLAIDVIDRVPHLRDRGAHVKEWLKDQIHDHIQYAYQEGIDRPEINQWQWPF

[5] = target: T4, SeXPK (Synechococcus elongatus, UniProt Q31LF9, H706A); assay: as above; format: biochemical; conditions: 30 mM phosphate, pH 6.4, 1 mM TPP, 1 mM MgCl2; no ATP; most activity lost
T4 construct: gene Synpcc7942_2080; N-terminal 6His tag, pDC vector, E. coli; dodecamer of six dimers; purified with TPP/Mg2+
T4 sequence (Q31LF9 whole entry H706A): as the sequence (Q31LF9 whole entry H706R) above, with R706A counted along it

[6] = target: T5, SeXPK (Synechococcus elongatus, UniProt Q31LF9, Y710A); assay: as above; format: biochemical; conditions: 30 mM phosphate, pH 6.4, 1 mM TPP, 1 mM MgCl2; no ATP
T5 construct: gene Synpcc7942_2080; N-terminal 6His tag, pDC vector, E. coli; dodecamer of six dimers; purified with TPP/Mg2+
T5 sequence (Q31LF9 whole entry Y710A): as the sequence (Q31LF9 whole entry H706R) above, with R706H, Y710A counted along it

[7] = target: T2, Methylomonas sp. XPK (MeXPK); assay: as above; format: biochemical; conditions: 30 mM phosphate, pH 6.4, 1 mM TPP, 1 mM MgCl2; no ATP
Text: acetyl phosphate formation, hydroxamate colorimetric assay on Methylomonas sp. XPK (MeXPK) | Methylomonas sp.

[8] = target: Bifidobacterium longum phosphoketolase (B. longum XPK) (B. longum); assay: cryo-EM structure; purified B. longum XPK with TPP/Mg2+, free form; D4 symmetry, focused refinement of one dimer
[9] = target: the molecule itself; assay: cryo-EM structure; purified SeXPK ~0.4 mg/ml (2.2 µM of dimer) in 20 mM HEPES-NaOH pH 7.2, 0.1 M NaCl, 0.2 mM TPP, 1 mM MgCl2; free and with 2 mM AMPPNP; D6 symmetry, focused refinement of one dimer

Nc1ncnc2c1ncn2[C@@H]1O[C@H](COP(=O)(O)OP(=O)(O)NP(=O)(O)O)[C@@H](O)[C@H]1O [AMPPNP, phosphoaminophosphonic acid adenylate ester]
cryo-EM structure [1]: the two subunits jointly bind two AMPPNP

Nc1ncnc2c1ncn2[C@@H]1O[C@H](COP(=O)(O)OP(=O)(O)OP(=O)(O)O)[C@@H](O)[C@H]1O [ATP, adenosine-5′-triphosphate]
inhibition at 0.5, 1 or 2 mM [2]: SeXPK is inhibited in vitro by ATP through an allosteric mode
inhibition [3]: its allosteric inhibition by ATP was validated based on steady-state kinetics

O=P(O)(O)OC[C@H]1OC(O)(CO)[C@@H](O)[C@@H]1O (stereo partly drawn) [F6P]
ATP sensitivity of activity [4]: H706R mutant of SeXPK shows only minor effect by ATP
acetyl phosphate formation, hydroxamate colorimetric assay [5]: H706A mutant of SeXPK lost most activity
acetyl phosphate formation, hydroxamate colorimetric assay [6]: Y710A mutant of SeXPK lost most activity
Km [7]: Methylomonas sp. XPK (MeXPK) is also inhibited by ATP

Bifidobacterium longum phosphoketolase (B. longum XPK) (enzyme)
stoichiometry N [8]: 8

B1: Synechococcus elongatus PCC7942 phosphoketolase (SeXPK) (enzyme)
chain: MTSTLQATDIATLSPNEQAAIDAWWRAANYLSVGQIYLRDNPLLQEPLRPEHIKQRLLGHWGSDPGLSFVYVHLNRLIRRLDLNLIYVTGPGHGAPALLANAWLEGTYSEVYPNCQQSTAGLQQFFKQFSFPGGIGSHCTPETPGSIHEGGELGYSLSHAFGAALDNPDLIVACVIGDGEAETGPLATSWHSNKFLNPAQDGAVLPILHLNGYKIANPTLLSRISHEELRSLFIGYGYEPFFVEGNDPAILHGVMASTLATCVQKIQAIQAAARSGESSDRPMWPMIVLRTPKGWTGPATIKGHVVEGSWRSHQVPMADVLTNPEHLQLLEDWLRSYRPEELFDASGAPVAELQAIAPIGDRRMSANPVTNGGLLRRALTLPDFRDQAVSVPAPGKSRADSTRPLGQFLREVIRHNPDNFRLFGPDETASNRLDAVYEVTSKVWLGDRIPEDEDGGHLSDRGRVMEILSEHTLEGWLEAYLLTGRHGFFATYEAFAHVIDSMVNQHAKWLDVSKREVDWRAPVSSLNILLSSTVWRQDHNGFSHQDPGFIDLVTNKSARVTRIYLPPDANCLLSVADHCLRSTDYINVIVADKQSHLQYLDAEAAARHCAKGIGIWDWASNDQGASPDVVIASCGDVVTLEALAATALLREHFPDLKIRFVNVVDLFRLQPDTEHPHGLSDRDFDSLFTVDKPIIFNFHGYPWLIHKLAYRRHNHNNLHVRGYKEVGNINTPLELAIRNQVDRFNLAIDVIDRVPHLRDRGAHVKEWLKDQIHDHIQYAYQEGIDRPEINQWQWPF
notes: phosphoketolase (XPK) of Synechococcus elongatus PCC7942, locus Synpcc7942_2080; Carries the coenzyme TPP/Mg2+; studied free and with 2 mM AMPPNP; Dodecamer of six dimers by cryo-EM; also called S. elongatus PCC7942 XPK; Synpcc7942_2080; source: E. coli DH5αDE3.1, purified (His-Tag resin, Q Sepharose, Superdex 200); copies: 12
stoichiometry N [9]: 12

— publication PMC10365998, “An ATP-sensitive phosphoketolase regulates carbon fixation in cyanobacteria” (Nature Metabolism, 2023)
